Source: US20200206198A1, “CFTR CHANNEL ACTIVATOR FOR USE IN THE TREATMENT AND/OR PREVENTION OF GLUTEN SENSITIVITY CONDITIONS” (priority 2017, published 2020)

Legend:
rhNBD1 ATP binding site = experiment: Intrinsic tryptophan (W401) fluorescence of NBD1; set-up: species or system human; details: preincubation of rhNBD1 with peptide
Experimental: To assess the capability of P31-43 peptide to bind NBD1 domain and modify its ATP binding site the intrinsic Tryptophan fluorescence of NBD1 was measured. Experiments were performed in a 0.2 ml fluorimeter cuvette at 25° C. using Varian Cary Eclipse fluorescence spectrophotometer. NBD1 protein was diluted to 1 μM in a buffer containing 50 mM Tris/HCl (pH 7.6), 150 mM NaCl, and 5 mM MgCl2, supplemented with 2 mM ATP and P31-43 5 μM when indicated. All spectra were corrected for buffer fluorescence. Excitation wavelength was adjusted to 292 nm and emission was scanned over the range 300-500 nm.

[1] = tested on: gliadin-sensitive BALB/c mice; experiment: Gliadin-sensitive BALB/c mice, 4-week oral gliadin challenge; assay type: in vivo, mouse
Experimental: In the first model, BALB/c mice are fed for at least three generations with a gluten-free diet, followed by a 4-week gliadin challenge, as described (Papista, C., et al. 2012). Ten week-old BALB/c mice were orally challenged for 4 weeks with gliadin or vehicle in the presence or absence of 2 mM VX-770 administered intraperitoneally 15 min prior to gliadin challenge (n=10 per treatment group). […] Moreover, VX-770 opposed the ability of gliadin to increase TG2 protein levels (FIG. 9c) and ERK 1/2 phosphorylation (FIG. 9d).
BALB/c mice (background BALB/cAnNCrl) were purchased from Charles River (Varese, Italy). Three generation gluten-free diet (Mucedola srl, Milan), male and female, were challenged with gliadin for 4 weeks. To assess the effects of VX-770 into a controlled environment, mice were challenged via gavage for 4 weeks with i) vehicle alone or ii) gliadin (SigmaAldich, G3375) (5 mg/daily for one week and then 5 mg/daily thrice a week for 3 weeks)(Moon, S. H., et al. 2016) in the presence or absence of intraperitoneal VX770 (0.075 mg/mice in 100 μl DMSO, 2 mM, SelleckchemS1144) or genistein (25 mg\kg in 100μ1 DMSO, SigmaAldrich), administered 15 minutes prior gliadin challenge (n=10 mice per group of treatment).
At the end of the last daily treatment, mice were anesthetized with Avertine (tribromoethanol, 250 mg/kg, Sigma Aldrich, T48402) and then killed; the intestines were collected for CFTR function analysis or stored for all described techniques.
Chambers for mounting either transwell cell cultures or mouse tissue biopsies were obtained from Physiologic Instruments (model P2300, San Diego, Calif., USA). Chamber solution was buffered by bubbling with identical Ringer solution on both sides and were maintained at 37° C., vigorously stirred, and gassed with 95% O2/[…]. Cells or tissues were short circuited using Ag/AgCl agar electrodes. A basolateral-to-apical chloride gradient was established by replacing NaCl with Na-gluconate in the apical (luminal) compartment to create a driving force for CFTR-dependent Cl secretion. To measure stimulated Isc, the changed sodium gluconate solution was supplied with 100 μM amiloride. Agonists (forskolin) were added to the bathing solutions as indicated (for a minimum 5 min of observation under each condition) to activate CFTR channels present at the apical surface of the epithelium (either cell surface or lumen side of the tissue) and CFTRInh-172 (10 μM) was added to the mucosal bathing solution to block CFTR-dependent Isc. Shortcircuit current (expressed as Isc (μA/cm2)) and resistance were acquired or calculated using the VCC600 transepithelial clamp from Physiologic Instruments and the Acquire & Analyze 2.3 software for data acquisition (Physiologic Instruments), as previously described Tosco A, et al. 2016; Romani, L. et al. 2017).
The whole lysate or membrane fraction proteins of cell lines and mice intestine homogenates were obtained from treated and untreated cells or mice as described. The equal amount of protein were resolved by SDS-PAGE gel and blotted with antibodies against: SQSTM1, (Sigma Aldrich, 108k4767) 1:1000, PPARγ (Santa Cruz Biotechnology, sc7273) 1:500, BECN1 (Abcam, ab58878) 1:1000, CFTR clone M3A7 (Abcam, ab4067) 1:500, phospho-ERK1/2 (php42/44, Cell Signaling Technology, #91101) 1:1000, UVRAG (Santa Cruz Biotechnology sc8215) 1:1000, NHERF-1 (BD, 611161) 1:1000, EZRIN (BD, 610603) 1:1000, hVps34 (SigmaV9764) 1:300, biotin (Abcam, ab1227) 1:2000, PKAr2a (BD, 610625) 1:500, Ubiquitin (Cell Signaling clone P4D1, #3936) 1:1000, CHIP (Calbiochem PC711) 1:500, Caspase-1 p10 (M-20) (Santa Cruz Biotechnology, sc-514) 1:200, NLRP3 (Abcam, ab4207), 1:500, IDO1 (monoclonal; cv152) 1:1000^[80], used as primary antibodies. Normalization was performed by probing the membrane with anti-β-actin (Cell Signaling, #4970) 1:1000, anti-Gapdh (Sigma-Aldrich, G8795) 1:1000 and anti-flottilin (Abcam ab15148) 1:1000 antibodies. […]

[2] = BALB/c mice small intestine homogenates

Chain of rhNBD1 ATP binding site (P13569 389-646 limits assumed): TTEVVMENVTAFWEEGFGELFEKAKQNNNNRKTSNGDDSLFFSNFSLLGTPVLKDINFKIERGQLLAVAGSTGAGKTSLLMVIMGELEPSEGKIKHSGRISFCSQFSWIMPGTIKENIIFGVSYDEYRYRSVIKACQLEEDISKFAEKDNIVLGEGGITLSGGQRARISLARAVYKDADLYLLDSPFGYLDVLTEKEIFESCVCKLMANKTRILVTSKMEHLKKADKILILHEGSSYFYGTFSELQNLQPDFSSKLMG

Molecule | effect on ATP quenching of W401 fluorescence (rhNBD1 ATP binding site) | effect on gliadin induced expression of IL-21 ([1]; BALB/c mice) | effect on gliadin-induced NLRP3 expression ([1]; BALB/c mice small intestine) | effect on gliadin-induced caspase 1 cleavage ([1]; BALB/c mice small intestine) | effect on increased NKG2D expression by intraepithelial lymphocytes ([1]; BALB/c mice small intestine) | Th1 transcription factor Tbet transcript [1, 2] | Th17 transcription factor Rorc transcript [1, 2] | effect on gliadin-induced decrease of CFTR function in small intestines ([1]; BALB/c mice, 2 mM VX-770 i.p. 15 min prior to gliadin) | effect on gliadin-induced ERK 1/2 phosphorylation ([1]; BALB/c mice, VX-770 i.p.) | effect on gliadin-induced increase of TG2 protein levels ([1]; BALB/c mice, VX-770 i.p.) | effect on gliadin-induced increase of IFN-γ mRNA and protein ([1]; BALB/c mice, p<0.001) | effect on gliadin-induced increase of IL-15 mRNA and protein ([1]; BALB/c mice, p<0.001) | effect on gliadin-induced increase of IL-17A mRNA and protein ([1]; BALB/c mice, p<0.001) | IL-10 production ([1]; gliadin-sensitive mice, ELISA) | TGF-β production ([1]; gliadin-sensitive mice, ELISA)
α-gliadin peptide LGQQQPFPPQQPY (SEQ ID 1), induces an enterocyte stress response (P31-43 sequence of alpha-gliadin) | quenching effect of ATP on W401 fluorescence was reduced | – | – | – | – | – | – | – | – | – | – | – | – | – | –
CC(C)(C)c1cc(C(C)(C)C)c(NC(=O)c2c[nH]c3ccccc3c2=O)cc1O [VX-770, N-(2,4-di-tert-butyl-5-hydroxyphenyl)-4-oxo-1,4-dihydroquinoline-3-carboxamide] | – | inhibited | counteracted | counteracted | counteracted | downregulated | downregulated | inhibitable | opposed | opposed | prevented | prevented | prevented | restored | restored
